{"source": "patent US20030044380A1", "about": "“Adhesive including medicament” (priority 2001, published 2003)", "key": {"[1]": {"experiment": "Direct blending of unencapsulated medicament with cyanoacrylic ester (storage stability)", "type": "physicochemical", "description": "Adhesive formulations including unencapsulated antibiotics were investigated. The medicaments were vacuum dried for 6 hours at room temperature in the presence of phosphorous pentoxide to remove the residual water. Direct blending of the medicaments with cyanoacrylic ester was conducted in a drying chamber protected by a high-purity nitrogen atmosphere."}, "[2]": {"experiment": "Stability of medicament in aqueous solution or extract (UV, HPLC)", "conditions": "physiologic saline or aqueous solution", "text": "Because the UV spectra of DSP and the extractive aqueous solution of Super Glue™ have overlapped absorptions at 240 nm, the release behavior of cyanoacrylate adhesives containing DSP microcapsules was studied by HPLC instead of UV spectroscopy."}, "[3]": {"experiment": "Release of medicament from solidified adhesive film into physiologic saline", "type": "physicochemical", "conditions": "extract in physiologic saline, UV spectroscopy", "experimental": "Samples of adhesive containing either encapsulated Penicillin G or unencapsulated Penicillin G were prepared as described above. Solidification of the adhesives was carried out in moist air so as to provide an accelerated solidification rate. The solidified adhesives having a thickness of about 1 mm were cut into small pieces which were immersed in physiologic saline at room temperature. The aqueous extracts were examined using UV spectroscopy."}, "[4]": {"experiment": "Solubility in formaldehyde acetone crosslinking solution", "type": "physicochemical", "description": "While not wishing to be limited to any particular mechanism, it is believed that the crosslinking step accounts, in part, for the encapsulation efficiency."}}}
{"molecule": "CC1(C)S[C@@H]2[C@H](NC(=O)Cc3ccccc3)C(=O)N2[C@H]1C(=O)[O-].[Na+]", "note": "[Penicillin G, Penicillin G Sodium Salt]", "values": [{"measurement": "observation on direct mixing with Super Glue", "setting": "[1]; unencapsulated medicament", "result": "Agglomeration was observed"}, {"measurement": "stability in aqueous solution / aqueous extract", "setting": "[2]", "result": "observed to decompose during the release process"}, {"measurement": "release from solidified adhesive film", "setting": "[3]", "result": "no detectable release"}]}
{"molecule": "COc1c(N2CCNC(C)C2)c(F)cc2c(=O)c(C(=O)O)cn(C3CC3)c12", "note": "(stereo not drawn) [Gatifloxacin]", "values": [{"measurement": "time to solidification after direct mixing", "setting": "[1]; methyl cyanoacrylate (Super Glue) with dry powder, room temperature", "result": "about 3 hours"}, {"measurement": "solubility in a formaldehyde acetone solution", "setting": "[4]", "result": "relatively weak solubility"}]}
{"molecule": "Nc1ccc(S(N)(=O)=O)cc1", "note": "[Sulfanilamide, Sulfanilamidum Crystallinum Sterile]", "values": [{"measurement": "shelf life of cyanoacrylate adhesives in the presence of unencapsulated medicament", "setting": "[1]; direct blending under nitrogen", "result": "more than 24 hours"}]}
